Columns and labels:
[1] = Metabolic stability in 10% fetal bovine serum assessed as compound remaining at 37 degC by RP-HPLC method; assay type: ADME, cell-free, Bos taurus; conditions: cattle
[2] = Chemical stability in CD3CN up to 7 days by 31P NMR method; assay type: physicochemical; conditions: read-out: Stability

Row | half-life [1] [h] | SMILES | remaining at 168 h [2] [%]
1 | < 1.5 | Cc1cn([C@H]2C[C@H](OP(=O)(O)OC[C@H]3O[C@@H](n4cc(C)c(=O)[nH]c4=O)C[C@@H]3OP(=O)(O)OC[C@H]3O[C@@H](n4cc(C)c(=O)[nH]c4=O)C[C@@H]3OP(=O)(O)OC[C@H]3O[C@@H](n4cc(C)c(=O)[nH]c4=O)C[C@@H]3OP(=O)(O)OC[C@H]3O[C@@H](n4cc(C)c(=O)[nH]c4=O)C[C@@H]3OP(=O)(O)OC[C@H]3O[C@@H](n4cc(C)c(=O)[nH]c4=O)C[C@@H]3OP(=O)(O)OC[C@H]3O[C@@H](n4cc(C)c(=O)[nH]c4=O)C[C@@H]3OP(=O)(O)OC[C@H]3O[C@@H](n4cc(C)c(=O)[nH]c4=O)C[C@@H]3OP(=O)(O)OC[C@H]3O[C@@H](n4cc(C)c(=O)[nH]c4=O)C[C@@H]3OP(=O)(O)OC[C@H]3O[C@@H](n4cc(C)c(=O)[nH]c4=O)C[C@@H]3O)[C@@H](CO)O2)c(=O)[nH]c1=O | 
2 | > 23.3 | Cc1cn([C@H]2C[C@H](OP(=O)(O)OC[C@H]3O[C@@H](n4cc(C)c(=O)[nH]c4=O)C[C@@H]3OP(=O)(O)OC[C@H]3O[C@@H](n4cc(C)c(=O)[nH]c4=O)C[C@@H]3OP(=O)(O)OC[C@H]3O[C@@H](n4cc(C)c(=O)[nH]c4=O)C[C@@H]3OP(=O)(O)OC[C@H]3O[C@@H](n4cc(C)c(=O)[nH]c4=O)C[C@@H]3OP(=O)(O)OC[C@H]3O[C@@H](n4cc(C)c(=O)[nH]c4=O)C[C@@H]3OP(=O)(O)OC[C@H]3O[C@@H](n4cc(C)c(=O)[nH]c4=O)C[C@@H]3OP(=O)(O)OC[C@H]3O[C@@H](n4cc(C)c(=O)[nH]c4=O)C[C@@H]3OP(=O)(O)OC[C@H]3O[C@@H](n4cc(C)c(=O)[nH]c4=O)C[C@@H]3OP(=O)(OC[C@H]3O[C@@H](n4cc(C)c(=O)[nH]c4=O)C[C@@H]3O)O[C@@H]3CSSC[C@H]3OCc3ccccc3)[C@@H](CO)O2)c(=O)[nH]c1=O (stereo partly drawn) | 
3 |  | COc1ccc(C(OC[C@H]2O[C@@H](n3cc(C)c(=O)[nH]c3=O)C[C@@H]2OP(OC2CSSCC2OCc2ccccc2)N(C(C)C)C(C)C)(c2ccccc2)c2ccc(OC)cc2)cc1 (stereo partly drawn) | 95

— ChEMBL document CHEMBL4020784, “Syntheses of prodrug-type phosphotriester oligonucleotides responsive to intracellular reducing environment for improvement of cell membrane permeability and nuclease resistance” (Bioorg Med Chem Lett, 2017)
